Test: solvent given as SMILES

C=CC
Settings | solvation free energy, 298 K [kcal/mol]
in C1CCC2CCCCC2C1 | -1.43
in C1COCCO1 | -1.36
in CC1COC(=O)O1 | -0.97
in CC(C)(C)O | -1.35
in CC(C)CC(C)(C)C | -1.61
in CC(C)CCO | -1.31
in CC(C)CO | -1.3
in CC(C)O | -1.32
in CCC(C)(C)O | -1.39
in CCC(C)=O | -1.54
in CCC(C)CO | -1.3
in CCC(C)O | -1.32
in CCC(O)CC | -1.31
in CCCC(C)O | -1.31
in CCCCC | -1.79
in CCCCCC | -1.75
in CCCCCCC | -1.74
in CCCCCCCC | -1.71
in CCCCCCCCC | -1.7
in CCCCCCCCCC | -1.68
in CCCCCCCCCCCCCCCC | -1.32
in CCCCCCCCO | -1.25
in CCCCCO | -1.32
in CCCCO | -1.41
in CCCO | -1.35
in CCOC(C)=O | -1.51
in CN1CCCC1=O | -1.24
in CN(C)C=O | -1.3
in CN(C)P(=O)(N(C)C)N(C)C | -1.39
in CO | -1.3
in COCCOCCOCCOC | -1.06
in CS(C)=O | -0.78
in Cc1ccc(C)cc1 | -1.58
in Cc1cccc(C)c1 | -1.58
in Cc1ccccc1C | -1.56
in ClC(Cl)(Cl)Cl | -1.84
in Nc1ccccc1 | -1.08
in O | 1.22
in OCCCOCCCO | -0.76
in OCCO | -0.45
in OCc1ccccc1 | -1.09
in c1ccccc1 | -1.64

CCCCC[N+](=O)[O-]
Settings | solvation free energy, 298 K [kcal/mol]
in O | -2.82

CN(CC(F)(F)F)c1ccccc1
Settings | solvation free energy, 298 K [kcal/mol]
in O | -1.92

C=CCl
Settings | solvation free energy, 298 K [kcal/mol]
in O | -0.59

CCCCCCCBr
Settings | solvation free energy, 298 K [kcal/mol]
in O | 0.34

c1ccc2cc3c(ccc4ccccc43)cc2c1
Settings | solvation free energy, 298 K [kcal/mol]
in O | -6.26

Oc1ccccc1I
Settings | solvation free energy, 298 K [kcal/mol]
in O | -6.21

Clc1cccnc1
Settings | solvation free energy, 298 K [kcal/mol]
in O | -4.01

CC(=O)OCCOC(C)=O
Settings | solvation free energy, 298 K [kcal/mol]
in O | -6.34

CCCCO[N+](=O)[O-]
Settings | solvation free energy, 298 K [kcal/mol]
in O | -2.09

COC(C)OC
Settings | solvation free energy, 298 K [kcal/mol]
in O | -3.26

O=C(Oc1ccccc1)c1ccccc1C(=O)Oc1ccccc1
Settings | solvation free energy, 298 K [kcal/mol]
in O | -11.6

C1COCCOCCOCCOCCOCCO1
Settings | solvation free energy, 298 K [kcal/mol]
in Cc1cccc(C)c1 | -12.9
in O | -15.6

O=C(O)c1cc([N+](=O)[O-])ccc1Cl
Settings | solvation free energy, 298 K [kcal/mol]
in C1CCOC1 | -13.6
in CC(C)(C)O | -13.1
in CC(C)CCO | -12.8
in CC(C)CO | -12.7
in CC(C)O | -13.1
in CC(C)OC(C)C | -12
in CCC(C)O | -12.9
in CCCC(C)O | -12.8
in CCCCCCCCCCO | -12.4
in CCCCCCCCO | -12.6
in CCCCCCCO | -12.6
in CCCCCCO | -12.6
in CCCCCO | -12.8
in CCCCO | -12.9
in CCCCOC(C)=O | -12.4
in CCCO | -13
in CCCOC(C)=O | -12.6
in CCO | -13.2
in CCOC(C)=O | -12.8
in CCOCC | -12.8
in COC(C)=O | -12.9
in O | -9.48

C=CC1(C)CCC(C(C)C)=CC1C(=C)C (stereo unspecified)
Settings | solvation free energy, 298 K [kcal/mol]
in O | -0.42

O=C(Oc1ccccc1)Oc1ccccc1
Settings | solvation free energy, 298 K [kcal/mol]
in CC(C)CO | -11.2
in CC(C)O | -11.3
in CCC(C)O | -11.2
in CCCCO | -11.4
in CCCO | -11.5
in CCO | -11.6
in CO | -11.8

O=C(O)c1cccc([N+](=O)[O-])c1
Settings | solvation free energy, 298 K [kcal/mol]
in C1CCOC1 | -12.5
in C1COCCO1 | -12.2
in CC(C)(C)O | -12.4
in CC(C)CCO | -11.8
in CC(C)CO | -12.1
in CC(C)O | -12.4
in CCC(C)O | -12.3
in CCCC(C)O | -12.2
in CCCCCCCCCCO | -11.8
in CCCCCCCCO | -11.9
in CCCCCCCO | -11.9
in CCCCCCO | -12
in CCCCCO | -12.1
in CCCCO | -12.2
in CCCCOC(C)=O | -11.6
in CCCO | -12.3
in CCO | -12.5
in CCOC(C)=O | -11.9
in CCOCC | -12.1
in CO | -12.7
in COC(C)=O | -12.1
in O | -9.45

CC(C)CBr
Settings | solvation free energy, 298 K [kcal/mol]
in C=CCCCCCCCCCCCCCC | -3.98
in O | -0.03

c1ccc2c(c1)Sc1ccccc1S2
Settings | solvation free energy, 298 K [kcal/mol]
in C1COCCO1 | -12.8
in CC(C)CC(C)(C)C | -11.1
in CC(C)CCO | -11.3
in CC(C)CO | -11.1
in CC(C)O | -11
in CC(C)OC(C)C | -11.7
in CCC(C)O | -11.2
in CCCCC(CC)CO | -11.4
in CCCCCC | -11.4
in CCCCCCC | -11.3
in CCCCCCCC | -11.4
in CCCCCCCCCC | -11.3
in CCCCCCCCCCO | -11.6
in CCCCCCCCO | -11.6
in CCCCCCCO | -11.6
in CCCCCCO | -11.5
in CCCCCO | -11.5
in CCCCO | -11.4
in CCCO | -11.3
in CCOCC | -12.1
in CO | -10.9
in COC(C)(C)C | -12.1

— the CombiSolv-Exp solvation set (Vermeire and Green 2021)
